This is an account of results in patent US11099176B2 (priority 2015, dated 2021).

pKd: −log10 of the molar value. Like-named read-outs stand apart in the source and are kept apart here.

What all share (format): binding
Test [1] has as its target Marinobacter sp. msLacBP6 variant W11C, Acrylodan conjugate. As to the kind of experiment: Fluorescence titration of conjugate. The note with it: λ1 473, λ2 520 nm.
The target in test [2] is Marinobacter sp. msLacBP6 variant G170C, SEQ ID NO: 36, Acrylodan conjugate. The test can be described thus: Fluorescence titration of conjugate. The note with it: λ1 518, λ2 490 nm.
In test [3] the target is Marinobacter sp. msLacBP6 variant G170C, SEQ ID NO: 36, Badan conjugate. As to the kind of experiment: Fluorescence titration of conjugate. The following applies: read-out: trueKd (lactate); monochromatic, 520 nm.
Test [4] concerns the target Marinobacter sp. msLacBP6 variant Y187C, C-terminal βZif fusion, SEQ ID NO: 61, Acrylodan and βZif 5IAF (Fluorescein) conjugate. The test can be described thus: Fluorescence titration of doubly labeled conjugate (ngmFRET). The source says: (§1) We tested whether non-geometrically modulated fluorescence energy transfer (ngmFRET) effects in doubly labeled proteins could improve ratiometric signaling. To this end, we fused a small, disulfide-containing domain, βZif (Smith et al., 2005, Protein Sci, 14, 64-73) to the C-terminus of msLacBP6 187C (Table 5). This arrangement enables independent, site-specific labeling with two different, thiol-reactive fluorophores by first reacting at the unprotected thiol in the msLacBP6, followed by a reduction of the […] disulfide to deprotect and label this second site with a second fluorophore. […] Indirectly responsive partners are selected according to their excitation and emission characteristics such that energy transfer is established between the two fluorophores. […] Mechanisms for non-geometrically modulated FRET (ngmFRET) effects are detailed in Materials and Methods and PCT International Patent Application No. PCT/US 16/62958, filed Nov. 19, 2016, the entire content of which is incorporated herein by reference.
(§2) In the Badan conjugates, the ngmFRET coupling was so strong that all the donor excited state energy was transferred to the acceptor, and the signal was converted from a dichromatic to a monochromatic response. In the Acrylodan conjugates, an improvement in the dichromatic signal was observed (FIG. 7).
(§3) Temperatures were advanced in 1K steps. […] Under these experimental photobleaching was not observed.

Test [5] deals with Marinobacter sp. msLacBP6 variant Y187C, C-terminal βZif fusion, SEQ ID NO: 61, Acrylodan and βZif Alexa532 conjugate. The test is described as above.
From the text: as §1, §2, §3

Test [6] concerns the target Marinobacter sp. msLacBP6 variant V188C, SEQ ID NO: 39, Badan conjugate. The test can be described thus: Fluorescence titration of conjugate. The note with it: read-out: trueKd (lactate); monochromatic, 513 nm.
For test [7], the target named is T1, Marinobacter adhaerens maLacBP8 variant F189C, SEQ ID NO: 43, Acrylodan conjugate (Marinobacter adhaerens, UniProt E4PNW2, C105A/C90A/F252C).
T1 construct: Acrylodan on Cys189
As to the kind of experiment: Fluorescence titration of conjugate.

For test [8], the target named is T2, Pseudomonas stuztzeri psLacBP11 variant W195C, SEQ ID NO: 45, Badan conjugate (Stutzerimonas nitrititolerans, UniProt A0ABX9V4I2, W224C).
T2 construct: Badan on Cys195
Further details: key: nb: no binding. On the procedure:
(§4) 12-, 24-, or 48-point logarithmic titration series were prepared on a Tecan Freedom liquid-handling robot, using an in-house program, ‘TitrationPlate’, that compiles an abstract description of a multi-component titration series into machine instructions for operating the robot. Temperature-dependent fluorescence emission intensities of 20 μL aliquots, each containing 10 μM protein, were measured in 384-well microtiter plates in a LightCycler 480 II (Roche) using excitation and emission wavelengths available for this instrument that most closely matched the optical characteristics of the fluorescent conjugate. Temperatures were advanced in 1K steps. At each temperature, data was collected at 1-second intervals for 60 seconds at which point the signal had relaxed to a steady value associated with the new temperature. […] The in-house program ‘TitrationMeltPlate’ was used to convert these observations into time-independent datasets that record fluorescence as a function of temperature for each well and associate wells with their concentration of titrant and additive. Management tools were developed to maintain a database of titrations and their analyses.
(§5) Ligand- and wavelength-dependent emission intensities were recorded on a Nanodrop3300 (Thermo Scientific) at room temperature. Using the LED closest to the optimal excitation wavelength of the fluorophore (UV, 365 nm; blue, 470 nm; ‘white’, 460-550 nm).
(§6) Monochromatic emission intensities Iλ (these intensities correspond to a bandpass intensity, recorded either with a physical filter in the case of the Roche LightCycler, or by integrating in the interval λ−δ, λ+δ in the case of an emission spectrum), were fit to Iλ=^apoβλ(1−ytrue)+^satβλytrue 1 where ^apoβλ and ^satβλ are the fluorescence baselines associated with the ligand-free and ligand-bound states of the protein, respectively, and ytrue the fractional saturation of the protein (Layton and Hellinga, 2010, Biochemistry, 49, 10831-41). Baseline functions can be constant, linear, or a second-order polynomial.

The target of test [9] is T3, Rhodobacter sphaeroides rsLacBP12 variant F191C, SEQ ID NO: 46, Acrylodan conjugate (Cereibacter sphaeroides, UniProt Q3IWV8, F228C).
T3 construct: Acrylodan on Cys191
Further details: key: nb: no binding. How it is done:
as §4, §5, §6

Test [10] has as its target T4, Rhodobacter sphaeroides rsLacBP12 variant F191C, SEQ ID NO: 46, Badan conjugate (Cereibacter sphaeroides, UniProt Q3IWV8, F228C).
T4 construct: Badan on Cys191
Also noted: key: nb: no binding. On the procedure:
as §4, §5, §6

The target in test [11] is T5, Thermanaerovibrio acidaminovorans taLacBP14 variant W186C, SEQ ID NO: 48, Acrylodan conjugate (Thermanaerovibrio acidaminovorans, UniProt D1B6P5, C271A/C333A/W212C).
T5 construct: Acrylodan on Cys186
Also noted: key: nb: no binding. On the procedure:
as §4, §5, §6

Test [12] has as its target T6, Thermanaerovibrio acidaminovorans taLacBP14 variant W186C, SEQ ID NO: 48, Badan conjugate (Thermanaerovibrio acidaminovorans, UniProt D1B6P5, C271A/C333A/W212C).
T6 construct: Badan on Cys186
Also noted: key: nb: no binding. The following applies: λ1 515, λ2 491 nm. On the procedure:
as §4, §5, §6

T4 sequence (Q3IWV8 entry or part of it F228C): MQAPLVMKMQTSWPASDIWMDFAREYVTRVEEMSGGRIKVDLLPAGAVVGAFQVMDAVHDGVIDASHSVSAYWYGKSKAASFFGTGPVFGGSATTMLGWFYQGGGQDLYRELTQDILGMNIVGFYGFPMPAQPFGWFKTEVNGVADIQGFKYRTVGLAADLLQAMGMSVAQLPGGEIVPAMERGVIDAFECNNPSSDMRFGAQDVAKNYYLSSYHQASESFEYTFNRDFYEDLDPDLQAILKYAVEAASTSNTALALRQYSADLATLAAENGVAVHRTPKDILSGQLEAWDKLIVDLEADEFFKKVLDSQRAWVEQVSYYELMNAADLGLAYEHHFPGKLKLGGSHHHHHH
T3 sequence (Q3IWV8 entry or part of it F228C): as above
T5 sequence (D1B6P5 entry or part of it W212C/C271A/C333A): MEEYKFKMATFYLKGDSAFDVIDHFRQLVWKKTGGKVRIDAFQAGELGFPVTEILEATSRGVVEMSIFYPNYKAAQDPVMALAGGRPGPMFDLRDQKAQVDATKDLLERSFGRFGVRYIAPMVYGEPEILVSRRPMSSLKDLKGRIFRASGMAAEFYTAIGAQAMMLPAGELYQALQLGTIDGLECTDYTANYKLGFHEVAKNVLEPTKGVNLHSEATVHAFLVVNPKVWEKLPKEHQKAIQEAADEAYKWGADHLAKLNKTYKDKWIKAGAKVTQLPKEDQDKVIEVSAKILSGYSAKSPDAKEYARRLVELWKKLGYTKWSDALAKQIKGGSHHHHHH
T6 sequence (D1B6P5 entry or part of it W212C/C271A/C333A): as above
T2 sequence (A0ABX9V4I2 entry or part of it W224C): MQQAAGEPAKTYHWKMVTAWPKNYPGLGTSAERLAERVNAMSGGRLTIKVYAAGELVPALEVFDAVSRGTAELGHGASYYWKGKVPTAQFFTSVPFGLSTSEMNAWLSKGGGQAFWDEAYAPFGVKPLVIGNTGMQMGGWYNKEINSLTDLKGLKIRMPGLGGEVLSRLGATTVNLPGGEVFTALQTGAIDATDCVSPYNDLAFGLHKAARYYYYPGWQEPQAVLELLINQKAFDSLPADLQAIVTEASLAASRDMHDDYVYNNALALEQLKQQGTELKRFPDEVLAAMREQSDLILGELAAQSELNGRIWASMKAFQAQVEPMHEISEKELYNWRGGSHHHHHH
T1 sequence (E4PNW2 entry or part of it C90A/C105A/F252C): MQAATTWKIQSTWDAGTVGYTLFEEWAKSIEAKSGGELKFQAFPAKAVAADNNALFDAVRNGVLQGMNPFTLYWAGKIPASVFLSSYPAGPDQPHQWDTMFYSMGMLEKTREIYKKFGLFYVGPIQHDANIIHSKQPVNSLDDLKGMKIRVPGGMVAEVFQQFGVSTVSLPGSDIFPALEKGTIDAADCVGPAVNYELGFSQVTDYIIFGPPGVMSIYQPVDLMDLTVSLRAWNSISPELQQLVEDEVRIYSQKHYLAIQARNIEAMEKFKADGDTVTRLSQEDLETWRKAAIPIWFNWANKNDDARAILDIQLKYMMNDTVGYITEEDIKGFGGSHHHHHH

As for `C[C@H](O)C(=O)O` [lactate], the pKd in test [1] (read-out: appKd (lactate)) was 3.40; in test [1] (read-out: trueKd (lactate)), 3.40; in [2] (read-out: appKd (lactate)) it was 5.00; in test [2] (read-out: trueKd (lactate)), 5.30; in test [3], 4.70; in test [4] (read-out: appKd (lactate), λ1 452, λ2 520 nm), 3.52. In addition, the pKd in [4] (read-out: trueKd (lactate), λ1 452, λ2 520 nm) was 3.52; in test [5] (read-out: appKd (lactate), λ1 452, λ2 550 nm), 3.40; in [5] (read-out: trueKd (lactate), λ1 452, λ2 550 nm), 3.52; in [6], 3.40; in [7], 2.82. Moreover, the “appKd (lactate)” value in test [8], in [9], in [10], in [11] and in [12] was “nb” each time. For the same compound, the “trueKd (lactate)” value in [8], in test [9], in test [10], in test [11] and in test [12] was “nb” each time.
